Experimental data from PubChem BioAssay AID2060356 (Molecular Pharmacology Branch, DTP, NCI, 2025).

Test system: PDC tumor spheroids with HUVEC/MSC, viability
Assay: Anticancer human tumor 439559-082-T-J2-PDC patient-derived colon adenocarcinoma cell line growth inhibition [TAK]
Conditions: for IC50: curve of first compound; for viability, T/C: stronger effect = lower value
From the text: Combinatorial screen of targeted agents with TAK-243 and ipatasertib in multi-cell type tumor spheroids
A high-throughput screen of multi-cell type tumor spheroids was designed to identify active combinations of targeted small molecules and TAK-243 or ipatasertib. Complex spheroids include a stromal component modeled by human endothelial cells (HUVEC) and fibroblasts modeled by human mesenchymal stem cells (MSCs). The concentration ranges selected for each drug and investigational agent were based upon clinically achievable concentrations if the clinical Cmax of the agent was known.
Compounds. The drugs and investigational agents: TAK-243 (785004), ipatasertib (767898), everolimus (733504), selumetinib (741078), bortezomib (756655), trametinib (758246), ixazomib (758254), vemurafenib (761431), dabrafenib (764134), sapanisertib (764658), alpelisib (765974), and copanlisib (816437), were obtained from the National Cancer Institute (NCI) Developmental Therapeutics Program Chemical Repository. The FDA-approved anticancer drug set is available from the NCI Developmental Therapeutics Program. […] The stock solutions were prepared in dimethyl sulfoxide (DMSO, Sigma-Aldrich, St. Louis, MO, cat. D2650) at 800-fold the tested concentration and stored at -70 degrees C prior to their use. All drugs and investigational agents were tested over a range starting from a high concentration at or near the clinical Cmax and decreasing in half-log increments. If the clinical Cmax for an agent had not been determined, the highest concentration tested was 10 microM.
NCI60 Cell Culture. NCI60 cell lines were obtained from the NCI Developmental Therapeutics Program Tumor Repository. For each lot of cells, the Repository performed Applied Biosystems AmpFLSTR Identifiler testing with PCR amplification to confirm consistency with the published Identifier STR profile for each cell line. Cells were kept in continuous culture for no more than 20 passages. The optimal seeding densities for each of the cell lines at each time point assessed were determined prior to performing the concentration response studies. Briefly, the NCI60 human tumor lines were grown as monolayers in RPMI 1640 medium supplemented with 10% FBS and 2 mmol/L L-glutamine.
An additional 2 lines were from the NCI60 cell line panel including melanomas, MALME-3M and SK-MEL-2. Pooled donor human umbilical vein endothelial cells (HUVEC, Lonza, cat. CC-2519) and human mesenchymal stem cells (hMSC, Lonza, cat. PT-2501) were purchased from Lonza (Walkersville, MD).
PDMR cell lines were grown in complete medium (DC medium): Dulbecco's modified Eagle's medium (DMEM)/F12 supplemented with 5% fetal bovine serum (FBS), 2 mM L-glutamine, 100 U/mL penicillin and 100 µg/ml streptomycin, 0.4 µg/ml hydrocortisone, 10 ng/ml epidermal growth factor (EGF) recombinant human protein, 24 µg/mL adenine, and 0.1 mg/mL primocin. During culture from frozen stock vials, PDMR cells were cultured in the same medium containing 10 µM Y-27632 (see Table 3). The PDCs were cultured in complete DMEM/F12 media without 10 microM Y-27632 dihydrochloride for at least two passages prior to the screen. The pooled donor HUVEC and hMSC were cultured in endothelial cell growth medium 2 (PromoCell, Heidelberg, Germany, cat. C-22011) and mesenchymal stem cell growth medium 2 (PromoCell, cat. C-28009), respectively. For all experiments, HUVEC and hMSC were used at passages </=5.
For the pre-screen, cell seeding densities were determined from a titration spanning the range from 5,000 to 313 cells per well. The mct-spheroids including 60% malignant cells, 25% HUVEC and 15% MSC dispensed as a mixture into U-bottom Ultra-Low Attachment 384-well plates (Corning, NY)
High-throughput Drug Combination Screening.
Prior to their inoculation into 384-well plates, malignant cells, HUVEC, and hMSC were removed from T flasks using TrypLE express (Thermo Fisher Scientific, cat. 12605036) and harvested by centrifugation for 5 min at 233 x g. […]

[1] = second compound 0.3 µM, first compound 0.000316 µM
[2] = second compound 0.3 µM, first compound 0.001 µM
[3] = second compound 0.3 µM, first compound 0.00316 µM
[4] = second compound 0.3 µM, first compound 0.01 µM
[5] = second compound 0.949 µM, first compound 0.000316 µM
[6] = second compound 0.949 µM, first compound 0.001 µM
[7] = second compound 0.949 µM, first compound 0.00316 µM
[8] = second compound 0.949 µM, first compound 0.01 µM
[9] = second compound 3 µM, first compound 0.000316 µM
[10] = second compound 3 µM, first compound 0.001 µM
[11] = second compound 3 µM, first compound 0.00316 µM
[12] = second compound 3 µM, first compound 0.01 µM
[13] = second compound 9.49 µM, first compound 0.000316 µM
[14] = second compound 9.49 µM, first compound 0.001 µM
[15] = second compound 9.49 µM, first compound 0.00316 µM
[16] = second compound 9.49 µM, first compound 0.01 µM
[17] = second compound 30 µM, first compound 0.000316 µM
[18] = second compound 30 µM, first compound 0.001 µM
[19] = second compound 30 µM, first compound 0.00316 µM
[20] = second compound 30 µM, first compound 0.01 µM
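Note: spheroids exposed to drugs for seven days before readout.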

Row | Compound | IC50 (second compound 0.3 µM) [nM] | IC50 (second compound 0.949 µM) [nM] | IC50 (second compound 3 µM) [nM] | IC50 (second compound 9.49 µM) [nM] | IC50 (second compound 30 µM) [nM] | viability, T/C [1] [%] | viability, T/C [2] [%] | viability, T/C [3] [%] | viability, T/C [4] [%] | viability, T/C [5] [%] | viability, T/C [6] [%] | viability, T/C [7] [%] | viability, T/C [8] [%] | viability, T/C [9] [%] | viability, T/C [10] [%] | viability, T/C [11] [%] | viability, T/C [12] [%] | viability, T/C [13] [%] | viability, T/C [14] [%] | viability, T/C [15] [%] | also measured
1 | CC(C)CC(NC(=O)CNC(=O)c1cc(Cl)ccc1Cl)B1OC(=O)CC(CC(=O)O)(C(=O)O)O1 (stereo not given) + CC(C)NCC(C(=O)N1CCN(c2ncnc3c2C(C)CC3O)CC1)c1ccc(Cl)cc1 | > 100 | > 100 | > 100 | > 100 | > 100 | 98.8 | 105 | 96 | 94.4 | 117 | 107 | 102 | 98.4 | 107 | 98.8 | 88.5 | 98.7 | 95.7 | 96.7 | 93 | viability, T/C (second compound 0.3 µM, first compound 0.0316 µM): 79.7%; viability, T/C (second compound 0.3 µM, first compound 0.1 µM): 57.7%; viability, T/C (second compound 0.949 µM, first compound 0.0316 µM): 79.6%; viability, T/C (second compound 0.949 µM, first compound 0.1 µM): 61.1%; viability, T/C (second compound 3 µM, first compound 0.0316 µM): 75.5%; viability, T/C (second compound 3 µM, first compound 0.1 µM): 58.4%; viability, T/C [16]: 89%; viability, T/C (second compound 9.49 µM, first compound 0.0316 µM): 70.4%; viability, T/C (second compound 9.49 µM, first compound 0.1 µM): 56.5%; viability, T/C [17]: 85.7%; viability, T/C [18]: 90.5%; viability, T/C [19]: 87%; viability, T/C [20]: 83.3%; viability, T/C (second compound 30 µM, first compound 0.0316 µM): 75.3%; viability, T/C (second compound 30 µM, first compound 0.1 µM): 57.5%
2 | CC(C)CC(NC(=O)C(Cc1ccccc1)NC(=O)c1cnccn1)B(O)O (stereo not given) + CC(C)NCC(C(=O)N1CCN(c2ncnc3c2C(C)CC3O)CC1)c1ccc(Cl)cc1 | > 10 | > 10 | > 10 | > 10 | > 10 | 96.6 | 97.7 | 97.7 | 80.3 | 92.5 | 105 | 93.2 | 74 | 93 | 102 | 89.3 | 70 | 92.9 | 84.4 | 85.5 | viability, T/C (second compound 0.3 µM, first compound 31.6 pM): 112%; viability, T/C (second compound 0.3 µM, first compound 0.0001 µM): 94.2%; viability, T/C (second compound 0.949 µM, first compound 31.6 pM): 105%; viability, T/C (second compound 0.949 µM, first compound 0.0001 µM): 107%; viability, T/C (second compound 3 µM, first compound 31.6 pM): 102%; viability, T/C (second compound 3 µM, first compound 0.0001 µM): 98.2%; viability, T/C (second compound 9.49 µM, first compound 31.6 pM): 93.3%; viability, T/C (second compound 9.49 µM, first compound 0.0001 µM): 97.6%; viability, T/C [16]: 69.3%; viability, T/C (second compound 30 µM, first compound 31.6 pM): 85.8%; viability, T/C (second compound 30 µM, first compound 0.0001 µM): 98.5%; viability, T/C [17]: 87.3%; viability, T/C [18]: 89.2%; viability, T/C [19]: 86%; viability, T/C [20]: 69.1%
